Values joined by “and” are separate entries in the source; they are usually repeats but may differ in a detail not shown here. Identical values can stand only once. ± gives the uncertainty stated by the source.
Key:
[1] = xn = mol fraction of the nth substance listed; settings: 101 kPa

C=Cn1cc[n+](CC(N)=O)c1.O=S(=O)([N-]S(=O)(=O)C(F)(F)F)C(F)(F)F
100 kPa
Settings	viscosity [mPa·s]
298.15 K	280.7 ± 58
303.15 K	140.3 ± 28
308.15 K	71.51 ± 14
313.15 K	35.3 ± 7.1
318.15 K	19.85 ± 4
323.15 K	12.53 ± 2.5

CC(=O)c1ccc(C)cc1
303.15 K
Settings	viscosity [mPa·s]
100 kPa	1.581 ± 0.021
101 kPa	1.581 ± 0.021

CC1CCC(=O)O1 (centres undefined)
101 kPa
Settings	viscosity [mPa·s]
298.15 K	1.873 ± 0.016
303.15 K	1.72 ± 0.015
308.15 K	1.586 ± 0.014
313.15 K	1.458 ± 0.013
318.15 K	1.364 ± 0.012

CCC1(C)OC1C#N (centres undefined)
101 kPa
Settings	viscosity [mPa·s]
293.15 K	1.485 ± 0.039
298.15 K	1.34 ± 0.04
303.15 K	1.19 ± 0.03
313.15 K	0.98 ± 0.03
323.15 K	0.84 ± 0.02

CCCCC(CC)COP(=O)(O)OCC(CC)CCCC (centres undefined)
101 kPa
Settings	viscosity [mPa·s]
303.15 K	20.25 ± 0.81
313.15 K	13.35 ± 0.54

CCCCCCCCCCCCN
Settings	viscosity [mPa·s]
303.15 K, 101 kPa	2.658 ± 0.029

CCCCCCCCCCCC[N+](C)(C)Cc1ccccc1.O=S(=O)([N-]S(=O)(=O)C(F)(F)F)C(F)(F)F
101 kPa
Settings	viscosity [mPa·s]
298.15 K	1425 ± 200
303.15 K	974.3 ± 130
308.15 K	682.7 ± 88
313.15 K	484.8 ± 59
318.15 K	351.1 ± 41
323.15 K	260.6 ± 29

CCCCCCn1cc[n+](C)c1.F[P-](F)(F)(F)(F)F
101 kPa
Settings	viscosity [mPa·s]
303.15 K	497.1 ± 150
308.15 K	364.4 ± 110
313.15 K	273 ± 83
318.15 K	208.5 ± 63

CCCCOC(=O)C(C)O (centres undefined)
Settings	viscosity [mPa·s]
318.15 K, 101 kPa	1.935 ± 0.034

CCCCOCCOCCOCCO
101 kPa
Settings	viscosity [mPa·s]
293.15 K	9.282 ± 0.055
303.15 K	6.528 ± 0.04
313.15 K	4.979 ± 0.032
323.15 K	3.769 ± 0.024

CCCC[n+]1cc[nH]c1.O=S(=O)([N-]S(=O)(=O)C(F)(F)F)C(F)(F)F
Settings	viscosity [mPa·s]
313.2 K, 101.33 kPa	47.18 ± 5.1

C[N+](=O)[O-]
Settings	viscosity
293.15 K, 101 kPa	0.648 ± 0.007 mPa·s
293.15 K, 101.33 kPa	0.644 ± 0.005 mPa·s and 0.644 ± 0.007 mPa·s and 0.646 ± 0.006 mPa·s
298 K, 101.3 kPa	0.627 ± 0.008 mPa·s
298.15 K, 101.33 kPa	0.6215 ± 0.0083 mPa·s and 0.615 ± 0.025 mPa·s
298.45 K, 101 kPa	0.619 ± 0.006 mPa·s
303.15 K, 101.33 kPa	0.581 ± 0.006 mPa·s and 0.581 ± 0.024 mPa·s
313.15 K, 101.33 kPa	0.522 ± 0.005 mPa·s and 0.522 ± 0.021 mPa·s
318 K, 101.3 kPa	0.5187 ± 0.02 mPa·s
318.15 K, 101 kPa	0.5208 ± 0.014 mPa·s and 0.51 ± 0.006 mPa·s and 0.505 ± 0.005 mPa·s
323.15 K, 101 kPa	0.486 ± 0.006 mPa·s
323.15 K, 101.33 kPa	0.4845 ± 0.0066 mPa·s

Cc1cccc(O)c1
Settings	viscosity
293.15 K, 101 kPa	16.9 ± 0.28 mPa·s
298 K, 101.3 kPa	13.19 ± 0.26 mPa·s
303 K, 101.3 kPa	9.877 ± 0.17 mPa·s
308 K, 101.3 kPa	7.599 ± 0.1 mPa·s
308.15 K, 101.33 kPa	7.635 ± 0.16 mPa·s
313 K, 101.3 kPa	6.146 ± 0.065 mPa·s
313.15 K, 101 kPa	5.925 ± 0.064 mPa·s and 6.542 ± 0.18 mPa·s
313.15 K, 101.3 kPa	6.252 ± 0.075 mPa·s
313.15 K, 101.33 kPa	6.18 mPa·s
318 K, 101.3 kPa	4.968 ± 0.057 mPa·s
318.15 K, 101 kPa	5.373 ± 0.69 mPa·s and 5.373 ± 0.46 mPa·s
323.15 K, 101.3 kPa	4.111 ± 0.05 mPa·s

N
Settings	viscosity [mPa·s]
293.15 K, 101 kPa	0.144 ± 0.004

O=Cc1ccco1
100 kPa
Settings	viscosity [mPa·s]
293.15 K	1.62 ± 0.65
298.15 K	1.48 ± 0.59
303.15 K	1.36 ± 0.54
308.15 K	1.26 ± 0.5
313.15 K	1.17 ± 0.47
318.15 K	1.09 ± 0.44
323.15 K	1.02 ± 0.41

OCC1CC1
101 kPa
Settings	viscosity [mPa·s]
293.15 K	3.985 ± 0.085
298.15 K	3.447 ± 0.074
303.15 K	3.002 ± 0.064
308.15 K	2.629 ± 0.056
313.15 K	2.315 ± 0.05
323.15 K	1.819 ± 0.039

c1ccc(Cc2ccccc2)cc1
Settings	viscosity [mPa·s]
302.85 K, 101 kPa	2.611 ± 0.069

Cc1cccc(O)c1 + c1ccccc1
[1], 308.15 K
Settings	viscosity [mPa·s]
x1 = 0.1019	0.6327 ± 0.0055
x1 = 0.1702	0.7272 ± 0.0062
x1 = 0.305	0.9887 ± 0.0082
x1 = 0.4025	1.282 ± 0.01
x1 = 0.5186	1.693 ± 0.014
x1 = 0.6441	2.436 ± 0.02
x1 = 0.768	3.648 ± 0.03
x1 = 0.8611	4.963 ± 0.041
x1 = 0.9525	6.937 ± 0.056

Cc1cccc(O)c1 + c1ccncc1
viscosity [mPa·s], [1]
Settings	x1 = 0.1071	x1 = 0.2168	x1 = 0.3407	x1 = 0.3927	x1 = 0.4754	x1 = 0.542	x1 = 0.6374	x1 = 0.6973	x1 = 0.8077	x1 = 0.8862
293.15 K	1.228 ± 0.012	1.77 ± 0.017	2.54 ± 0.025	3.085 ± 0.031	4.25 ± 0.05	5.585 ± 0.062	8.16 ± 0.1	9.98 ± 0.13	13.08 ± 0.19	14.81 ± 0.23
303.15 K	1.098 ± 0.011	1.461 ± 0.014	2.125 ± 0.021	2.51 ± 0.03	3.35 ± 0.03	4.175 ± 0.044	5.57 ± 0.06	6.52 ± 0.08	7.885 ± 0.1	8.64 ± 0.12
313.15 K	0.931 ± 0.009	1.24 ± 0.012	1.732 ± 0.017	2.022 ± 0.02	2.605 ± 0.025	3.15 ± 0.031	3.995 ± 0.04	4.565 ± 0.046	5.255 ± 0.055	5.59 ± 0.059

— the CheMixHub viscosity set
